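48-hour exposure; five concentrations; linearly interpolated endpoints. Abbreviation: GI50, concentration required for 50% inhibition of growth.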 Calls of active or inactive are those of the source. Rule as the data show it: active = GI50 up to about 1.1 µM and inactive = higher.

What all share (test): NCI tumour cell line growth inhibition, 48 h
Test [1] relates to CAKI-1.
The subject of test [2] is ACHN.
Test [3] deals with NCI/ADR-RES.
The test system of test [4] is UACC-257.
In test [5] the test system is KM12.
For test [6], the system named is HT-29.
Test [7] relates to M14.
Test [8] deals with U-251.
The subject of test [9] is IGROV-1.
Test [10] deals with SK-MEL-28.
Test [11] deals with SF-539.
Test [12] deals with OVCAR-3.
Test [13] has as its system MOLT-4.
Test [14] relates to HL-60.
The subject of test [15] is RPMI-8226.
The test system of test [16] is SR.

Consider `COCN1C(=O)[C@@H]2CCCN2C(=O)c2cc([N+](=O)[O-])ccc21`, for which the GI50 in [1] was 76.7 µM (inactive); in [2], 53.1 µM (inactive); in [3], > 100 µM (inactive); in [4], > 100 µM (inactive); in test [5], > 100 µM (inactive); in test [6] it was 71.9 µM (inactive). Further, the GI50 in test [7] was > 100 µM (inactive); in test [8], 42 µM (inactive); in test [9], 35.5 µM (inactive); in test [10], > 100 µM (inactive); in [11], > 100 µM (inactive).

Turning to `CC12ON=C(c3ccccc3)N1C=CN1C(c3ccccc3)=NOC12` (centres undefined), the GI50 in test [1], in test [2], in test [3], in test [4], in test [5] and in [7] was > 100 µM (inactive) in each case. The GI50 in test [9], in test [12] and in test [11] was > 100 µM (inactive) each time.

Take `O=C(/C=C/c1ccccc1)c1cc(C(=O)/C=C/c2ccccc2)c(O)cc1O`: the GI50 was > 100 µM (inactive) in test [13]; > 100 µM (inactive) in test [1]; 73.1 µM (inactive) in test [2]; > 100 µM (inactive) in [4]; > 100 µM (inactive) in test [6]; > 100 µM (inactive) in test [7]. Further, the GI50 in test [14] was > 100 µM (inactive); in test [15], 65.6 µM (inactive); in test [9], > 100 µM (inactive); in [10] it was 40.5 µM (inactive); in [11] it was 47.3 µM (inactive).

In the case of `COc1cc(N(C)C)ccc1C=c1c2ccccc2n2c1cc(-c1ccccc1)[n+]2C`, the GI50 in [13] was 0.222 µM (active); in test [1] it was 0.472 µM (active); in test [2] it was 0.29 µM (active); in test [3] it was 6.47 µM (inactive); in test [4], 0.319 µM (active); in test [5] it was 0.17 µM (active). For the same molecule, the GI50 in [6] was 0.325 µM (active); in test [7], 0.411 µM (active); in [14], 0.149 µM (active); in [8], 0.0581 µM (active); in [15], 0.151 µM (active); in test [12], 0.392 µM (active). For the same molecule, the GI50 was 0.802 µM (active) in test [10] and 0.0813 µM (active) in test [11].

As for `O=C1c2ccccc2C(=O)N1n1c(Cc2ccc([N+](=O)[O-])cc2)n[nH]c1=O`, the GI50 in [13], in test [1], in test [2], in [3], in test [4] and in test [5] was > 100 µM (inactive) throughout. The GI50 in test [6], in test [8], in test [15], in test [9], in [16] and in [12] was > 100 µM (inactive) in each case. For the same molecule, the GI50 in test [10] and in test [11] was > 100 µM (inactive) in each case.

In the case of `CCOP(=O)(C=C=C1CCC2[C@@H]3CCc4cc(OC)ccc4C3CC[C@]12C)OCC` (some centres undefined), the GI50 in test [1] was 12.9 µM (inactive); in test [2], 10.3 µM (inactive); in test [3], 6.47 µM (inactive); in test [4] it was 6.21 µM (inactive); in test [5], 12.4 µM (inactive); in test [6], 3.93 µM (inactive). The GI50 in [7] was 11.6 µM (inactive); in [14], 0.0222 µM (active); in test [8], 11 µM (inactive); in test [9], 11.4 µM (inactive); in [16], 1 µM (active); in test [12] it was 10.2 µM (inactive). Further, the GI50 in test [10] was 10.6 µM (inactive); in test [11], 14.9 µM (inactive).

For the molecule `CCC(=O)O[C@H]1CC[C@H]2[C@@H]3CCC4=C/C(=N/NC(=O)c5cccc6c(=O)c7ccccc7[nH]c56)CC[C@]4(C)[C@H]3CC[C@]12C`, the GI50 in test [13], in [2], in test [3], in test [4], in test [5] and in [6] was > 25 µM (inactive) in each case. For the same molecule, the GI50 in test [7], in test [8], in [15], in test [9], in test [16] and in [12] was > 25 µM (inactive) each time. In addition, the GI50 in test [10] and in test [11] was > 25 µM (inactive) each time.

For `CCOC(=O)CNc1c(OCc2ccccc2)c(=O)c1=O`, the GI50 in [13], in test [2], in test [3], in test [4], in test [5] and in [6] was > 100 µM (inactive) each time. Moreover, the GI50 in [7], in test [8], in test [15], in test [9], in test [16] and in [12] was > 100 µM (inactive) each time. Also, the GI50 in test [10] is > 100 µM (inactive).

As for `COc1cccc(/C=N/[N+](C)(C)C)c1O`, the GI50 in test [13], in test [1], in [2], in [3], in test [4] and in test [5] was > 10 µM (inactive) throughout. Further, the GI50 in test [6], in test [7], in test [14], in [8], in test [15] and in [9] was > 10 µM (inactive) throughout. Besides, the GI50 in [12], in test [10] and in test [11] was > 10 µM (inactive) in each case.

As for `C/C(=N\Nc1nc2ccccc2n1C)c1ccc2ccccc2n1`, the GI50 is 0.414 µM (active) in test [13]; 0.611 µM (active) in test [1]; 1.63 µM (inactive) in [3]; 4.36 µM (inactive) in [4]; 0.528 µM (active) in [5]; 0.0861 µM (active) in [6]. The GI50 in test [7] was 1.02 µM (active); in test [14], 0.774 µM (active); in test [8], 2 µM (inactive); in test [9], 0.016 µM (active); in test [16], 0.51 µM (active); in test [12] it was 0.0489 µM (active). In addition, the GI50 in test [10] was 5.09 µM (inactive); in test [11] it was 4.53 µM (inactive).

In the case of `CCCCc1ccc2[n+](c1)C(C(=O)OCC)=PC2` (centres undefined), the GI50 is 37.5 µM (inactive) in test [13]; > 100 µM (inactive) in test [1]; > 100 µM (inactive) in test [2]; > 100 µM (inactive) in test [4]; > 100 µM (inactive) in test [5]; 42.8 µM (inactive) in test [6]. Also, the GI50 in [7] is > 100 µM (inactive); in test [14], 40.7 µM (inactive); in test [8] it was 71.4 µM (inactive); in test [15] it was 28.2 µM (inactive); in [9], > 100 µM (inactive); in test [16], 32.7 µM (inactive). For the same molecule, the GI50 in [12], in [10] and in test [11] was > 100 µM (inactive) in each case.

Consider `O=C(/C=C/c1c[nH]c2ccccc12)c1ccccc1O`, for which the GI50 was 7.41 µM (inactive) in test [13]; 12.6 µM (inactive) in test [2]; 15.5 µM (inactive) in test [4]; 11.3 µM (inactive) in [5]; 15.1 µM (inactive) in test [6]; 14 µM (inactive) in [7]. The GI50 in [14] was 13.6 µM (inactive); in [8] it was 13.4 µM (inactive); in test [15], 9.27 µM (inactive); in test [9] it was 3.83 µM (inactive); in test [12] it was 5.05 µM (inactive); in test [10], 19.2 µM (inactive). In addition, the GI50 in [11] was 12.6 µM (inactive).

Regarding `Cc1cc2[nH]c3c(C#N)c(-c4ccccc4)c(/C=N/c4cccc(C(F)(F)F)c4)c(=O)n3c2cc1C`, the GI50 in [1] was 89.9 µM (inactive); in test [2], 83.9 µM (inactive); in test [3], > 100 µM (inactive); in test [4], > 100 µM (inactive); in [5], 38.4 µM (inactive); in test [7], > 100 µM (inactive). The GI50 in test [8] was > 100 µM (inactive); in [15], 70 µM (inactive); in test [12] it was 16.3 µM (inactive); in [10], > 100 µM (inactive); in test [11] it was 63.4 µM (inactive).

Consider `Cc1cc(C)c2c(=N)c3ccccc3n(CCCCCCO)c2n1`, for which the GI50 is 3.78 µM (inactive) in test [13]; 2.48 µM (inactive) in test [1]; 1.36 µM (inactive) in test [2]; 2.31 µM (inactive) in [3]; 4.75 µM (inactive) in test [4]; 3.94 µM (inactive) in test [5]. The GI50 in [6] was 1.03 µM (active); in [7], 4.22 µM (inactive); in test [14], 2.9 µM (inactive); in [8] it was 3.51 µM (inactive); in test [15] it was 1.38 µM (inactive); in [9], 2.09 µM (inactive). For the same molecule, the GI50 in test [12] is 6.55 µM (inactive); in [10], 5.71 µM (inactive); in test [11], 2.33 µM (inactive).

For `Nc1ccc2nc(-c3cccc(Cl)c3)cc(O)c2c1`, the GI50 in [13] is 3.55 µM (inactive); in [2], 5.93 µM (inactive); in [3] it was 3.56 µM (inactive); in [4] it was > 100 µM (inactive); in test [5], 4.23 µM (inactive); in test [6] it was 3.41 µM (inactive). Moreover, the GI50 in test [7] is 5.56 µM (inactive); in [8] it was 3.2 µM (inactive); in [9], 29.3 µM (inactive); in test [10], 7.91 µM (inactive); in test [11] it was 2.11 µM (inactive).

For the origin of these results see ChEMBL document CHEMBL1201862, “PubChem BioAssay data set” (2004).
